≈ marks a conversion by molar mass, not a printed value.
Tested on: Kinetic aqueous solubility, PBS pH 7.4, LC-UV/MS
Assay: Inhibitors of Cruzain: Aqueous Profiling Assay
From the text: Chagas Disease is a neglected tropical disease that affects over 16 million people in Latin America. The cysteine protease cruzain is essential for the survival Trypanosoma cruzi, the parasitic agent responsible for Chagas disease. Potential intervention for T. cruzi includes the inhibition of cruzain. This bioassay will summarize the ongoing development of small molecule cruzain inhbitiors. Currently, a screen of ~200k compounds and through extensive follow-up work a probe was identified. To further characterize the probe, it was tested in in vitro ADME assays. This bioassay provides profiling data on aqueous kinetic solubility (PBS @ pH 7.4), an important measure that affects in vivo bioavailability. NIH Chemical Genomics Center [NCGC] NIH Molecular Libraries Probe Production Centers Network [MLPCN] MLSCN Grant: DA024891-01 PI Name: Dr. Brian Shoichet; University of California, San Francisco
1. 8ul of reference and test compound stock solution were added to 392ul 100mM phosphate buffer (pH 7.4) 2. Sample tubes were shaken for 1 hr (1000 rpm) at room temperature 3. Samples were centrifuged (10 min at 12000 rpm) to precipitate un-dissolved particles 4. Supernatants were transferred to new tubes 5. Concentration of the supernatant was determined by LC-UV or LC-MS/MS

- solubility: 5 µM (≈ 2.03 µg/mL)
SMILES: Cc1ccc(OCCn2c(CCNC(=O)C3CCCCC3)nc3ccccc32)cc1

— PubChem BioAssay AID504751 (National Center for Advancing Translational Sciences (NCATS), 2011)
